US9751885B2, “Cyclopropanamine compound and use thereof” (Takeda Pharmaceutical Company Limited, priority 2012, dated 2017)
Where a name gives a salt, the structure may show the parent alone.

Tests used:
MAO-A enzyme = MAO-A enzyme (Homo sapiens (Human), UniProt P21397); experiment: Measurement of MAO-A inhibitory activity (MAO-Glo Assay); assay type: biochemical
Procedure: The MAO-A inhibitory activity evaluation described below followed the protocol of MAO-Glo (registered trademark) Assay of Promega KK.
A test compound dissolved in 4% DMSO was added by 12.5 μL to 25 μL reaction solution (100 mM HEPES (pH 7.5), 5% glycerol) containing 400 ng of MAO-A enzyme (Sigma-Aldrich Co. LLC.), and the mixture was reacted at room temperature for 10 min. […] After reaction at room temperature for 60 min, Luciferine detection reagent (Promega KK) (50 μL) was added to terminate the reaction. After reaction at room temperature for min with stirring, the luminescence was measured by Envision (PerkinElmer). The MAO-A inhibitory rate (%) of the test compound was calculated by the following formula. inhibitory rate(%)=(1−(test compound count−blank)÷(control−blank))×100
The count of the MAO-A enzyme reaction mixture under compound non-addition conditions is indicated as control, and the count under compound non-addition and MAO-A enzyme non-addition conditions is indicated as blank.

human LSD1(172-833) = human LSD1(172-833) (Homo sapiens (Human), UniProt O60341); experiment: Measurement of LSD1 inhibitory activity (time-resolved fluorescence, biotin-histone H3 mono methylated K4 peptide); assay type: biochemical
Procedure: When the turbidity reached 500 Klett units, the culture temperature was changed to 16° C., IPTG (Isopropyl β-D-1-thiogalactopyranoside) having a final concentration of 0.5 mM was added to induce expression, and the cells were cultured further for 14 hr. The culture medium was centrifuged at 6,000 g for 15 min, and Escherichia coil pellets were recovered.
Using Branson ultrasonic disintegrator, the suspension was disrupted by ultrasonication for 3 min, and centrifuged at 33,000 g for 60 min, and the supernatant was recovered. […] It was concentrated to 10 mL with AmiconUltra (NWCO 30K) (Millipore Japan), and purified with HiLoad 26/60 Superdex 200 pg column (GE Healthcare) equilibrated with Buffer A to give hLSD1 purified product (8.4 mg). The protein concentration of hLSD1 was measured by BCA Protein Assay Kit (Thermo Fisher Scientific K.K.) using bovine serum albumin as the standard.
(5) Measurement of LSD1 Inhibitory Activity
After reaction at room temperature for 5 min, 1 mM 2-PCPA solution was added 5 μL to terminate the reaction. A detection solution ([…] potassium fluoride, 0.1% BSA) containing europium-labeled anti-histone H3 antibody (Wako Pure Chemical Industries, Ltd.) and Streptavidin-XL665 (Cisbio) was further added by 5 μL, and the mixture was left standing for 60 min.

MAO-B enzyme = MAO-B enzyme (Homo sapiens (Human), UniProt P27338); experiment: Measurement of MAO-B inhibitory activity (MAO-Glo Assay); settings: read-out: MAO-B IC50 value;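 note: luminescence read-out, compound preincubated 10 min with enzyme then reacted 60 min at room temperature, inhibition relative to enzyme reaction without compound, blank lacking enzyme and compound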
MAO-B enzyme, sequence (P27338 whole entry): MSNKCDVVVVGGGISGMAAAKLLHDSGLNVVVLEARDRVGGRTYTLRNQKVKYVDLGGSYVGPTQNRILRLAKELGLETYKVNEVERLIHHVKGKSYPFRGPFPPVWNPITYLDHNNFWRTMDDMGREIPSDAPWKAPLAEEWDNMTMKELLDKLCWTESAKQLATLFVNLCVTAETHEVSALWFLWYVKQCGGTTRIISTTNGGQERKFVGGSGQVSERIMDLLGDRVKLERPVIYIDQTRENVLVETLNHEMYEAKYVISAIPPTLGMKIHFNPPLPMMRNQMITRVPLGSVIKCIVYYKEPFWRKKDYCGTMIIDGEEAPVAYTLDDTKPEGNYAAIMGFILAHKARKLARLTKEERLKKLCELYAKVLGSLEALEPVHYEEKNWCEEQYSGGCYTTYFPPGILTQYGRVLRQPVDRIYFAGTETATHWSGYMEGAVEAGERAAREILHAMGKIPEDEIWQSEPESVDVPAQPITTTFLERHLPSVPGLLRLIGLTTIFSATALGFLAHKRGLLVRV

MAO-A enzyme, sequence (P21397 whole entry): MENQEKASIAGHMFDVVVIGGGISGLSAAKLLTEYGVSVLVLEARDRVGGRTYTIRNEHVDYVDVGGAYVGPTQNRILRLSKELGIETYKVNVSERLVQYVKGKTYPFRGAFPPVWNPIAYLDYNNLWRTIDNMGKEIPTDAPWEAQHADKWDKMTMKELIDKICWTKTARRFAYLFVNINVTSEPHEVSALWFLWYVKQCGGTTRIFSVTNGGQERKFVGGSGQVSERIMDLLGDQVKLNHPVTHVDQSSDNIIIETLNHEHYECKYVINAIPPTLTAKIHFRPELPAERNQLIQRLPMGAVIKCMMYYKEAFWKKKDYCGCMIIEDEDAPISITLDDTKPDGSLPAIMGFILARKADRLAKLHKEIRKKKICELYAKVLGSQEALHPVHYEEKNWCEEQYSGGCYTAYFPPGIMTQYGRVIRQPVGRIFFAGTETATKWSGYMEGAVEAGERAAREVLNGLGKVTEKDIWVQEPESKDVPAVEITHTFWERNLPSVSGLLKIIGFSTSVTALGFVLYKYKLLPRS

Row | Structure (SMILES) | IC50 (MAO-A enzyme) | IC50 (human LSD1(172-833)) | IC50 (MAO-B enzyme)
1 | Cc1cc(NC(=O)c2cccc([C@@H]3C[C@H]3NCC3CC3)c2)sn1 (relative stereo) [Example 152, 3-(trans-2-((cyclopropylmethyl)amino)cyclopropyl)-N-(3-methyl-1,2-thiazol-5-yl)benzamide hydrochloride] | > 10 µM | < 0.1 µM | > 10 µM
2 | N#Cc1ccc(CN[C@@H]2C[C@H]2c2ccc(C(=O)NCc3ccccc3)cc2)cc1 (relative stereo) [Example 36, N-benzyl-4-(trans-2-((4-cyanobenzyl)amino)cyclopropyl)benzamide trifluoroacetate] | 4.3 µM | < 0.1 µM | > 10 µM
3 | N[C@@H]1C[C@H]1c1ccc(C(=O)Nc2cccc(C(F)(F)F)c2)cc1 (relative stereo) [Example 4, 4-(trans-2-aminocyclopropyl)-N-(3-(trifluoromethyl)phenyl)benzamide hydrochloride] | 0.19 µM | < 0.1 µM | 0.54 µM
4 | O=C(NCc1ccccc1)c1ccc([C@@H]2C[C@H]2NCc2cccs2)cc1 (relative stereo) [Example 46, N-benzyl-4-(trans-2-((2-thienylmethyl)amino)cyclopropyl)benzamide trifluoroacetate] | 1.8 µM | < 0.1 µM | > 10 µM
5 | N[C@@H]1C[C@H]1c1ccc(C(=O)Nc2ccc(-c3ncccn3)cc2)cc1 (relative stereo) [Example 50, 4-(trans-2-aminocyclopropyl)-N-(4-(pyrimidin-2-yl)phenyl)benzamide dihydrochloride] | 0.2 µM | < 0.1 µM | > 10 µM
6 | CC(C)(C)c1ccc(CN[C@@H]2C[C@H]2c2ccc(C(=O)NCc3ccccc3)cc2)cc1 (relative stereo) [Example 31, N-benzyl-4-(trans-2-((4-tert-butylbenzyl)amino)cyclopropyl)benzamide trifluoroacetate] | 4 µM | < 0.1 µM | > 10 µM
7 | O=C(Nc1ccccc1)c1cccc([C@@H]2C[C@H]2NCC2CC2)c1 (relative stereo) [Example 13, 3-(trans-2-((cyclopropylmethyl)amino)cyclopropyl)-N-phenylbenzamide hydrochloride] | > 10 µM | < 0.1 µM | > 10 µM
8 | N[C@@H]1C[C@H]1c1ccc(C(=O)NC2CCCCC2)cc1 (relative stereo) [Example 6, 4-(trans-2-aminocyclopropyl)-N-cyclohexylbenzamide hydrochloride] | 0.32 µM | < 0.1 µM | 4.2 µM
9 | Cc1csc(CN[C@@H]2C[C@H]2c2ccc(C(=O)NCc3ccccc3)cc2)c1 (relative stereo) [Example 49, N-benzyl-4-(trans-2-(((4-methyl-2-thienyl)methyl)amino)cyclopropyl)benzamide trifluoroacetate] | 1.8 µM | < 0.1 µM | > 10 µM
10 | CC(C)(C)CN[C@@H]1C[C@H]1c1cccc(C(=O)NC2CC(F)(F)C2)c1 (relative stereo) [Example 154, N-(3,3-difluorocyclobutyl)-3-(trans-2-((2,2-dimethylpropyl)amino)cyclopropyl)benzamide hydrochloride] | > 10 µM | < 0.1 µM | > 10 µM
11 | CN(Cc1ccccc1)C(=O)c1ccc([C@@H]2C[C@H]2NCC2CC2)cc1 (relative stereo) [Example 10, N-benzyl-4-(trans-2-((cyclopropylmethyl)amino)cyclopropyl)-N-methylbenzamide hydrochloride] | 7 µM | < 0.1 µM | > 10 µM
12 | CN1CCN(c2ccc(NC(=O)c3ccc([C@@H]4C[C@H]4NCC4CC4)cc3)cc2)CC1 (relative stereo) [Example 23, 4-(trans-2-((cyclopropylmethyl)amino)cyclopropyl)-N-(4-(4-methylpiperazin-1-yl)phenyl)benzamide tris(trifluoroacetate)] | > 10 µM | < 0.1 µM | > 10 µM
13 | O=C(NCc1cccc2c1OCCO2)c1ccc([C@@H]2C[C@H]2NCC2CC2)cc1 (relative stereo) [Example 30, 4-(trans-2-((cyclopropylmethyl)amino)cyclopropyl)-N-(2,3-dihydro-1,4-benzodioxin-5-ylmethyl)benzamide trifluoroacetate] | > 10 µM | < 0.1 µM | > 10 µM
14 | O=C(NCc1ccccn1)c1ccc([C@@H]2C[C@H]2NCC2CC2)cc1 (relative stereo) [Example 16, 4-(trans-2-((cyclopropylmethyl)amino)cyclopropyl)-N-(pyridin-2-ylmethyl)benzamide bis(trifluoroacetate)] | > 10 µM | < 0.1 µM | > 10 µM
15 | O=C1COc2ccc(CN[C@@H]3C[C@H]3c3ccc(C(=O)NCc4ccccc4)cc3)cc2N1 (relative stereo) [Example 44, N-benzyl-4-(trans-2-(((3-oxo-3,4-dihydro-2H-1,4-benzoxazin-6-yl)methyl)amino)cyclopropyl)benzamide trifluoroacetate] | 1.3 µM | < 0.1 µM | > 10 µM
16 | Cc1ncc(NC(=O)c2cccc([C@@H]3C[C@H]3NC3CCC3)c2)s1 (relative stereo) [Example 210, 3-(trans-2-(cyclobutylamino)cyclopropyl)-N-(2-methyl-1,3-thiazol-5-yl)benzamide dihydrochloride] | > 10 µM | < 0.1 µM | > 10 µM
17 | O=C(Nc1ccc2[nH]c(=O)sc2c1)c1cccc([C@@H]2C[C@H]2NCC2CC2)c1 (relative stereo) [Example 147, 3-(trans-2-((cyclopropylmethyl)amino)cyclopropyl)-N-(2-oxo-2,3-dihydro-1,3-benzothiazol-6-yl)benzamide trifluoroacetate] | > 10 µM | < 0.1 µM | > 10 µM
18 | O=C(Nc1ccc(-c2cn3c(n2)SCC3)cc1)c1cccc([C@@H]2C[C@H]2NCC2CC2)c1 (relative stereo) [Example 127, 3-(trans-2-((cyclopropylmethyl)amino)cyclopropyl)-N-(4-(2,3-dihydroimidazo[2,1-b][1,3]thiazol-6-yl)phenyl)benzamide bis(trifluoroacetate)] | > 10 µM | < 0.1 µM | > 10 µM
19 | N#CCN(Cc1ccccc1)C(=O)c1ccc([C@@H]2C[C@H]2NCC2CC2)cc1 (relative stereo) [Example 22, N-benzyl-N-(cyanomethyl)-4-(trans-2-((cyclopropylmethyl)amino)cyclopropyl)benzamide trifluoroacetate] | > 10 µM | < 0.1 µM | > 10 µM
20 | O=C(NCC(c1ccccc1)N1CCOCC1)c1ccc(C2CC2NCC2CC2)cc1 (stereo not drawn) [Example 24, 4-(trans-2-((cyclopropylmethyl)amino)cyclopropyl)-N-(2-(morpholin-4-yl)-2-phenylethyl)benzamide bis(trifluoroacetate)] | > 10 µM | < 0.1 µM | > 10 µM
21 | O=C(NCc1ccc(N2CCOCC2)cc1)c1ccc([C@@H]2C[C@H]2NCC2CC2)cc1 (relative stereo) [Example 28, 4-(trans-2-((cyclopropylmethyl)amino)cyclopropyl)-N-(4-(morpholin-4-yl)benzyl)benzamide bis(trifluoroacetate)] | > 10 µM | < 0.1 µM | > 10 µM
22 | O=C(Nc1ccc2[nH]ncc2c1)c1cccc([C@@H]2C[C@H]2NCC2CC2)c1 (relative stereo) [Example 146, 3-(trans-2-((cyclopropylmethyl)amino)cyclopropyl)-N-(1H-indazol-5-yl)benzamide trifluoroacetate] | > 10 µM | < 0.1 µM | > 10 µM
23 | Cc1ccccc1CN[C@@H]1C[C@H]1c1ccc(C(=O)NCc2ccccc2)cc1 (relative stereo) [Example 33, N-benzyl-4-(trans-2-((2-methylbenzyl)amino)cyclopropyl)benzamide trifluoroacetate] | > 10 µM | < 0.1 µM | > 10 µM
24 | Cc1ccc(CN[C@@H]2C[C@H]2c2ccc(C(=O)NCc3ccccc3)cc2)s1 (relative stereo) [Example 48, N-benzyl-4-(trans-2-(((5-methyl-2-thienyl)methyl)amino)cyclopropyl)benzamide trifluoroacetate] | 2.6 µM | < 0.1 µM | > 10 µM
25 | O=C(NCCc1ccccc1)c1cccc([C@@H]2C[C@H]2NCC2CC2)c1 (relative stereo) [Example 120, 3-(trans-2-((cyclopropylmethyl)amino)cyclopropyl)-N-(2-phenylethyl) benzamide trifluoroacetate] | 9.6 µM | < 0.1 µM | > 10 µM
26 | O=C(NCCc1ccccn1)c1ccc([C@@H]2C[C@H]2NCC2CC2)cc1 (relative stereo) [Example 19, 4-(trans-2-((cyclopropylmethyl)amino)cyclopropyl)-N-(2-(pyridin-2-yl)ethyl)benzamide bis(trifluoroacetate)] | > 10 µM | < 0.1 µM | > 10 µM
